Reference: the NIST ThermoML archive (doi:10.1016/j.jct.2015.07.029)
± gives the expanded uncertainty stated by the source.

Test: mn = molality of the nth substance listed, in mol/kg
Settings: 101.3 kPa, Liquid, Alternating current cell with electrodes

O=C(O)c1ccc(O)c(O)c1 [3,4-dihydroxybenzoic acid] + O
electrical conductivity [S/m]
Settings | m1 = 0.001 | m1 = 0.002 | m1 = 0.004 | m1 = 0.006 | m1 = 0.008 | m1 = 0.01
288.15 K | 0.0048 ± 0.0011 | 0.007 ± 0.0014 | 0.0102 ± 0.0021 | 0.0126 ± 0.0025 | 0.0146 ± 0.0029 | 0.0164 ± 0.0033
291.15 K | 0.0051 ± 0.0011 | 0.0074 ± 0.0015 | 0.0107 ± 0.0022 | 0.0132 ± 0.0027 | 0.0154 ± 0.0031 | 0.0173 ± 0.0035
294.15 K | 0.0054 ± 0.0012 | 0.0078 ± 0.0016 | 0.0113 ± 0.0023 | 0.014 ± 0.0028 | 0.0162 ± 0.0032 | 0.0182 ± 0.0036
298.15 K | 0.0058 ± 0.0013 | 0.0084 ± 0.0017 | 0.0121 ± 0.0024 | 0.015 ± 0.003 | 0.0174 ± 0.0035 | 0.0196 ± 0.0039
